Experimental data reported in patent publication US10882871B2, “18/19F-labelled compounds which target the prostate specific membrane antigen” (BRITISH COLUMBIA CANCER AGENCY BRANCH, priority 2016, dated 2021).
Values joined by “and” are separate entries in the source; they are usually repeats but may differ in a detail not shown here. Equal values may be shown once.

Tested on: tumors derived from LNCaP cells
Test: PET/CT imaging and biodistribution of F-18 labeled HTK-01069 and HTK-01070 in tumor-bearing mice
Assay type: in vivo, mouse (NODSCID 1L2RγKO male mice)
Protocol: LNCap cell line used in the tumor model was obtained commercially from ATTC (LNCaP clone FGC, CRL-1740). It was established from a metastatic site of left supraclavicular lymph node of human prostatic adenocarcinoma. Cells were cultured in PRMI 1640 (StemCell Technologies, Vancouver, BC) supplemented by 10% FBS, 100 U/mL penicillin and 100 μg/mL streptomycin at 37° C. in a humidified incubator containing 5% CO2. Cells grown to 80-90% confluence were then washed with sterile phosphate-buffered saline (1×PBS pH 7.4) and trypsinization. The collected cells number was counted with Hemacytometer (Hausser Scientific).
Tumor implantation: Imaging and biodistribution experiments were performed using NODSCID 1L2RγKO male mice. Three or four mice in each cage equipped with enrichments. The mice were maintained and the experiments were conducted in according to the guidelines established by Canadian Council on Animal Care and approved by Animal Ethics Committee of the University of British Columbia. Mice were housed under pathogen-free conditions and kept on twelve hours light and twelve hours dark cycle in the Animal Research Centre, British Columbia Cancer Research Centre, Vancouver, Canada.
Mice were anesthetized by inhalation with 2.5% isoflurane in 2.0 L/min of oxygen during cells implantation. Mice were implanted subcutaneously with 1×10^7 LNCaP cells behind left shoulder. Mice were imaged or used in biodistribution studies when the tumor grew up to reach 5-8 mm in diameter during 5-6 weeks.
PET/CT Imaging: PET imaging experiments were conducted using Siemens inveon micro PET/CT scanner. Each tumor bearing mouse was injected ˜6.44 MBq of F-18 labeled HTK-01069 and ˜7.08 MBq of F-18 labeled HTK-01070 through the tail vein under anesthesia. After one hour, the mice were sedated again with 2% isoflurane inhalation and positioned in the scanner. Static PET imaging was performed to determined activity uptake of tumor and other organs. A CT scan was obtained for localization and attenuation correction after segmentation for reconstructing the PET images. The data was acquired by scanning the mice for 10 minutes each. The mice were kept warm by a heating pad during acquisition. The mice were euthanized after imaging and followed by biodistribution. Please see FIGS. 2 and 3 of this specification for reconstructed PET images for 1L2RγKO mice injected with HTK-01069 and HTK-01070 respectively.
Blood was withdrawn immediately, and the organs of interest were quickly removed. Each organ was weighed and the tissue radioactivity was measured with a Cobra II gamma counter (Packard), normalized to the injected dose using a standard curve and expressed as the percentage of the injected dose per gram of tissue (% ID/g). Biodistribution data are shown for HTK-01069 in Tables 5, 6 and 7 and HTK-01070 in Tables 8, 9, 10 of the specification respectively.

[1] = 1 h p.i. with co-injection of 0.5 mg DCFPyL, Avg
[2] = 1 h p.i. with co-injection of 0.5 mg DCFPyL, single mice

C[N+](C)(Cc1ccc(C(=O)NCCCC[C@H](NC(=O)N[C@@H](CCC(=O)O)C(=O)O)C(=O)O)cc1)C[B-](F)(F)[18F] [F-18 HTK-01069]
Biodistribution Adrenals [1]: 0.35 % ID/g
Biodistribution Blood [1]: 0.45 % ID/g
Biodistribution Bone [1]: 0.13 % ID/g
Biodistribution Brain [1]: 0.03 % ID/g
Biodistribution Fat [1]: 0.11 % ID/g
Biodistribution Heart [1]: 0.25 % ID/g
Biodistribution Intestine [1]: 0.57 % ID/g
Biodistribution Kidney [1]: 3.54 % ID/g
Biodistribution Liver [1]: 0.11 % ID/g
Biodistribution Lung [1]: 0.15 % ID/g
Biodistribution Muscle [1]: 0.30 % ID/g
Biodistribution Pancreas [1]: 3.00 % ID/g
Biodistribution Seminal [1]: 0.38 % ID/g
Biodistribution Spleen [1]: 0.11 % ID/g
Biodistribution Stomach [1]: 0.13 % ID/g
Biodistribution Tail [1]: 0.44 % ID/g
Biodistribution Testes [1]: 0.10 % ID/g
Biodistribution Tumour [1]: 0.33 % ID/g
Biodistribution Bone [2]: 0.15 % ID/g and 0.17 % ID/g and 0.11 % ID/g and 0.10 % ID/g
Biodistribution Brain [2]: 0.02 % ID/g and 0.03 % ID/g and 0.04 % ID/g
Biodistribution Heart [2]: 0.17 % ID/g and 0.31 % ID/g and 0.27 % ID/g and 0.26 % ID/g
Biodistribution Kidney [2]: 2.35 % ID/g and 3.57 % ID/g and 4.08 % ID/g and 4.15 % ID/g
Biodistribution Lung [2]: 0.10 % ID/g and 0.20 % ID/g and 0.16 % ID/g and 0.13 % ID/g
Biodistribution Muscle [2]: 0.22 % ID/g and 0.36 % ID/g and 0.37 % ID/g and 0.26 % ID/g
Biodistribution Pancreas [2]: 2.40 % ID/g and 3.36 % ID/g and 2.71 % ID/g and 3.53 % ID/g
Biodistribution Stomach [2]: 0.08 % ID/g and 0.13 % ID/g and 0.15 % ID/g
Biodistribution Tail [2]: 0.43 % ID/g and 0.41 % ID/g and 0.37 % ID/g and 0.55 % ID/g
Biodistribution Testes [2]: 0.07 % ID/g and 0.13 % ID/g and 0.12 % ID/g and 0.09 % ID/g
Biodistribution Tumour [2]: 0.30 % ID/g and 0.35 % ID/g and 0.26 % ID/g and 0.42 % ID/g
Biodistribution Adrenals (1 h p.i., Avg): 3.98 % ID/g
Biodistribution Blood (1 h p.i., Avg): 0.52 % ID/g
Biodistribution Bone (1 h p.i., Avg): 0.27 % ID/g
Biodistribution Brain (1 h p.i., Avg): 0.03 % ID/g
Biodistribution Fat (1 h p.i., Avg): 1.09 % ID/g
Biodistribution Heart (1 h p.i., Avg): 1.16 % ID/g
Biodistribution Intestine (1 h p.i., Avg): 0.55 % ID/g
Biodistribution Kidney (1 h p.i., Avg): 92.90 % ID/g
Biodistribution Liver (1 h p.i., Avg): 0.14 % ID/g
Biodistribution Lung (1 h p.i., Avg): 0.26 % ID/g
Biodistribution Muscle (1 h p.i., Avg): 0.36 % ID/g
Biodistribution Pancreas (1 h p.i., Avg): 2.77 % ID/g
Biodistribution Seminal (1 h p.i., Avg): 2.82 % ID/g
Biodistribution Spleen (1 h p.i., Avg): 0.48 % ID/g
Biodistribution Stomach (1 h p.i., Avg): 2.99 % ID/g
Biodistribution Tail (1 h p.i., Avg): 0.62 % ID/g
Biodistribution Testes (1 h p.i., Avg): 0.53 % ID/g
Biodistribution Tumour (1 h p.i., Avg): 5.58 % ID/g
Biodistribution Brain (1 h p.i., single mice): 0.03 % ID/g
Biodistribution Fat (1 h p.i., single mice): 0.95 % ID/g and 1.21 % ID/g and 0.74 % ID/g and 1.46 % ID/g
Biodistribution Intestine (1 h p.i., single mice): 0.43 % ID/g and 0.59 % ID/g and 0.54 % ID/g and 0.64 % ID/g
Biodistribution Lung (1 h p.i., single mice): 0.21 % ID/g and 0.28 % ID/g and 0.22 % ID/g and 0.32 % ID/g
Biodistribution Muscle (1 h p.i., single mice): 0.36 % ID/g and 0.39 % ID/g and 0.34 % ID/g and 0.35 % ID/g
Biodistribution Pancreas (1 h p.i., single mice): 2.32 % ID/g and 2.86 % ID/g and 2.76 % ID/g and 3.17 % ID/g
Biodistribution Tail (1 h p.i., single mice): 0.70 % ID/g and 0.47 % ID/g and 0.57 % ID/g and 0.74 % ID/g
Biodistribution Testes (1 h p.i., single mice): 0.44 % ID/g and 0.58 % ID/g and 0.51 % ID/g and 0.60 % ID/g
Biodistribution Tumour (1 h p.i., single mice): 7.84 % ID/g and 4.16 % ID/g and 4.47 % ID/g and 5.86 % ID/g
Biodistribution Adrenals (2 h p.i., Avg): 2.01 % ID/g
Biodistribution Blood (2 h p.i., Avg): 0.16 % ID/g
Biodistribution Bone (2 h p.i., Avg): 0.12 % ID/g
Biodistribution Brain (2 h p.i., Avg): 0.03 % ID/g
Biodistribution Fat (2 h p.i., Avg): 0.43 % ID/g
Biodistribution Heart (2 h p.i., Avg): 0.72 % ID/g
Biodistribution Intestine (2 h p.i., Avg): 0.75 % ID/g
Biodistribution Kidney (2 h p.i., Avg): 51.79 % ID/g
Biodistribution Liver (2 h p.i., Avg): 0.06 % ID/g
Biodistribution Lung (2 h p.i., Avg): 0.12 % ID/g
Biodistribution Muscle (2 h p.i., Avg): 0.24 % ID/g
Biodistribution Pancreas (2 h p.i., Avg): 2.24 % ID/g
Biodistribution Seminal (2 h p.i., Avg): 3.24 % ID/g
Biodistribution Spleen (2 h p.i., Avg): 0.26 % ID/g
Biodistribution Stomach (2 h p.i., Avg): 2.25 % ID/g
Biodistribution Tail (2 h p.i., Avg): 0.31 % ID/g
Biodistribution Testes (2 h p.i., Avg): 0.39 % ID/g
Biodistribution Tumour (2 h p.i., Avg): 5.36 % ID/g
Biodistribution Bone (2 h p.i., single mice): 0.12 % ID/g and 0.08 % ID/g and 0.14 % ID/g and 0.13 % ID/g
Biodistribution Brain (2 h p.i., single mice): 0.04 % ID/g and 0.02 % ID/g and 0.03 % ID/g
Biodistribution Heart (2 h p.i., single mice): 0.63 % ID/g and 0.61 % ID/g and 0.79 % ID/g and 0.84 % ID/g
Biodistribution Intestine (2 h p.i., single mice): 0.78 % ID/g and 0.92 % ID/g and 0.63 % ID/g and 0.68 % ID/g
Biodistribution Kidney (2 h p.i., single mice): 62.04 % ID/g and 35.60 % ID/g and 49.89 % ID/g and 59.65 % ID/g
Biodistribution Lung (2 h p.i., single mice): 0.16 % ID/g and 0.09 % ID/g and 0.11 % ID/g and 0.14 % ID/g
Biodistribution Muscle (2 h p.i., single mice): 0.29 % ID/g and 0.18 % ID/g and 0.22 % ID/g and 0.28 % ID/g
Biodistribution Pancreas (2 h p.i., single mice): 2.39 % ID/g and 1.89 % ID/g and 2.21 % ID/g and 2.48 % ID/g
Biodistribution Spleen (2 h p.i., single mice): 0.31 % ID/g and 0.18 % ID/g and 0.21 % ID/g and 0.33 % ID/g
Biodistribution Tail (2 h p.i., single mice): 0.29 % ID/g and 0.24 % ID/g and 0.36 % ID/g and 0.34 % ID/g
Biodistribution Testes (2 h p.i., single mice): 0.41 % ID/g and 0.37 % ID/g and 0.39 % ID/g
Biodistribution Tumour (2 h p.i., single mice): 5.03 % ID/g and 4.25 % ID/g and 5.74 % ID/g and 6.41 % ID/g
